Experimental data published in patent US11395492B2, “Antimicrobial and agrochemical compositions” (Myco Sciences Limited, priority 2015, dated 2022).
Several values for one entry are separate records, joined by “and”; a condition that tells them apart may be missing. Identical values can stand only once. Like-named read-outs stand apart in the source and are kept apart here.

Columns and labels:
[1] = system: spores of F. oxysporum; assay: Sporicidal assay (1) with sodium nitrite, F. oxysporum; assay type: cell-based, Fusarium oxysporum f. sp. cubense
[2] = system: spores of B. cinerea; assay: Sporicidal assay (1) with sodium nitrite, B. cinerea; assay type: cell-based, Botrytis cinerea
[3] = system: Rhizoctonia solani; assay: Inhibition of fungal growth assay (radial growth on PDA); conditions: for IC50 (% of stock solution) on growth of R. solani: potato dextrose agar, 24 hour culture at 22° C.
Protocol: Inhibition of fungal growth assay. The Rhizoctonia solani (R. solani) strain was isolated from sclerotia on the skin of a potato and was maintained in culture on potato dextrose agar (PDA) at room temperature (22° C.). To assess the effects of the compositions on fungal growth, 10 microliters of the test compositions diluted in sterile distilled water was placed in the wells of a 12-well tissue culture plate and 1 milliliter of PDA was added by pipette to each well. The plate was agitated to distribute the test composition evenly throughout the agar (distilled water alone was used as control) and then the agar was allowed to set. Plugs of agar containing fungal hyphae (3×3 millimeters) from an established fungal culture were cut out using a scalpel and inserted into holes cut into the centre of the agar in each well of the 12-well plate, which was then cultured at room temperature. To assess the effects of compositions on radial fungal growth, the diameter of the fungal hyphae was measured twice at a 90° angle using a ruler and the average diameter in millimeters was calculated. Concentrations of compositions required to inhibit the radial growth of R. solani by 50% (IC50) were determined graphically.

[4] = system: Magnaporthe oryzae; assay type: cell-based; conditions: for M. oryzae fungal growth (mm): 30 min exposure, 4 days culture
[5] = pH of diluted compositions and components; assay type: physicochemical
[6] = system: Rhizoctonia solani
Protocol: To assess the effects of composition on fungal growth, 10 microliters of the test compositions diluted in sterile distilled water were placed in the wells of a 12-well tissue culture plate and 1 milliliter of PDA was added by pipette to each well. The plate was agitated to distribute the test composition evenly throughout the agar (distilled water alone was used as control) and then the agar was allowed to set. Plugs of agar containing fungal hyphae (3×3 millimeters) from an established fungal culture were cut out using a scalpel and inserted into holes cut into the centre of the agar in each well of the 12-well plate, which was then cultured at room temperature (22° C.). To assess the effects of compositions on radial fungal growth, the diameter the fungal hyphae was measured twice at a 90° angle using a ruler and the average diameter in millimeters was calculated. If no fungal growth could be detected by eye, the cultures were observed by phase microscopy (40×) to confirm that there was no growth (NG) as judged by visual examination.
To assess the effects of compounds and compositions on sclerotia formation, the R. solani cultures were examined daily and radial fungal growth was measured until the cultures were confluent after which time the development of white (immature) sclerotia and mature (black pigmented) sclerotia was noted and the number of mature sclerotia was counted on day 10 of culture.

[7] = system: sclerotia of R. solani; assay: Scleroticidal assay with compositions and sodium nitrite; assay type: cell-based, Rhizoctonia solani
Excerpt: Scleroticidal assay. Plugs of agar containing white immature sclerotia (3×3 millimeters) were cut from a 6 to 8 day culture of R. solani, whilst mature melanized (black) sclerotia (around 10×3 millimeters) were excised from 13-day old R. solani cultures and cut into 2×3 millimeter pieces with a scalpel. The sclerotia samples were then placed in the wells of a 96-well plate containing 75 microliters of various concentrations of sodium nitrite or sterile distilled water (DW) as control. TO start the reaction, 75 microliters of CuZn #31 (diluted in DW) was added to the wells. The plate was carefully shaken and incubated at room temperature for 10 minutes when the liquid was carefully removed and 150 microliters of CM-1 medium was added for 5 minutes to stop the reaction.

[8] = NaNO2 0 mM, test item 0.3%, 30 min
[9] = NaNO2 1 mM, test item 0.1%, 30 min
[10] = NaNO2 1 mM, test item 0.3%, 30 min
[11] = NaNO2 3 mM, test item 0.1%, 30 min
[12] = NaNO2 3 mM, test item 0.3%, 30 min
[13] = NaNO2 10 mM, test item 0.1%, 30 min
[14] = NaNO2 10 mM, test item 0.3%, 30 min
[15] = NaNO2 30 mM, test item 0.1%, 30 min
[16] = NaNO2 30 mM, test item 0.3%, 30 min
[17] = FIG. 3, 2 to 3 replicate experiments
[18] = NaNO2 1 mM + DW (sodium nitrite alone)
[19] = NaNO2 3 mM + DW (sodium nitrite alone)
[20] = NaNO2 10 mM + DW (sodium nitrite alone)
[21] = NaNO2 30 mM + DW (sodium nitrite alone)

Which results are given for `OP(O)O` [Composition H3PO3, phosphorous acid]?
Fungal growth score, spores of F. oxysporum [1, 8]: 2; Fungal growth score, spores of F. oxysporum ([1]; NaNO2 1 mM, test item 0.03%, 30 min): 2; Fungal growth score, spores of F. oxysporum [1, 9]: 2; Fungal growth score, spores of F. oxysporum [1, 10]: 2; Fungal growth score, spores of F. oxysporum ([1]; NaNO2 3 mM, test item 0.03%, 30 min): 2; Fungal growth score, spores of F. oxysporum [1, 11]: 2; Fungal growth score, spores of F. oxysporum [1, 12]: 1; Fungal growth score, spores of F. oxysporum ([1]; NaNO2 10 mM, test item 0.03%, 30 min): 2; Fungal growth score, spores of F. oxysporum [1, 13]: 2; Fungal growth score, spores of F. oxysporum [1, 14]: 0; Fungal growth score, spores of F. oxysporum ([1]; NaNO2 30 mM, test item 0.03%, 30 min): 2; Fungal growth score, spores of F. oxysporum [1, 15]: 1; Fungal growth score, spores of F. oxysporum [1, 16]: 0; Fungal growth score, spores of B. cinerea ([2]; NaNO2 0 mM, test item 0.1%, 30 min): 2; Fungal growth score, spores of B. cinerea [2, 8]: 2; Fungal growth score, spores of B. cinerea ([2]; NaNO2 0 mM, test item 1%, 30 min): 2; Fungal growth score, spores of B. cinerea [2, 9]: 2; Fungal growth score, spores of B. cinerea [2, 10]: 2; Fungal growth score, spores of B. cinerea ([2]; NaNO2 1 mM, test item 1%, 30 min): 2; Fungal growth score, spores of B. cinerea [2, 11]: 2; Fungal growth score, spores of B. cinerea [2, 12]: 2; Fungal growth score, spores of B. cinerea ([2]; NaNO2 3 mM, test item 1%, 30 min): 1; Fungal growth score, spores of B. cinerea [2, 13]: 2; Fungal growth score, spores of B. cinerea [2, 14]: 2; Fungal growth score, spores of B. cinerea ([2]; NaNO2 10 mM, test item 1%, 30 min): 0; Fungal growth score, spores of B. cinerea [2, 15]: 2; Fungal growth score, spores of B. cinerea [2, 16]: 2; Fungal growth score, spores of B. cinerea ([2]; NaNO2 30 mM, test item 1%, 30 min): 0; Fungal growth score, spores of B. cinerea ([2]; NaNO2 100 mM, test item 0.1%, 30 min): 2; Fungal growth score, spores of B. cinerea ([2]; NaNO2 100 mM, test item 0.3%, 30 min): 1; Fungal growth score, spores of B. cinerea ([2]; NaNO2 100 mM, test item 1%, 30 min): 0; IC50 values with R. solani (fungal growth) [3]: around 250 mg/L; IC50 (% of stock solution) on growth of R. solani [3]: 0.64^+ % of stock solution; IC50 (% of stock solution) on growth of R. solani ([3]; listed as phosphorous acid): 0.64 % of stock solution; M. oryzae fungal growth (mm) ([4]; NaNO2 0 mM, composition 1%): 21 mm; M. oryzae fungal growth (mm) ([4]; NaNO2 10 mM, composition 0.1%): 20 mm; percent of control (A, B, M) used to calculate Sf ([4]; NaNO2 10 mM, composition 0.3%): 38%; M. oryzae fungal growth (mm) ([4]; NaNO2 10 mM, composition 0.3%): 13 mm; percent of control (A, B, M) used to calculate Sf ([4]; NaNO2 10 mM, composition 1%): 48%; M. oryzae fungal growth (mm) ([4]; NaNO2 10 mM, composition 1%): 11 mm; fungicidal activity to M. oryzae ([4]; absence of sodium nitrite, 1% of stock solution): not fungicidal; pH of a 1% solution in DW ([5]; 1% in distilled water): 2.12; pH: 1% in DW + 100 mM NaNO2 ([5]; 1% in distilled water with 100 mM sodium nitrite): 4.22; Day 1 growth in mm ([6]; 10 mg/L (Table 9)): 18 mm; Day black SCL 1st seen ([6]; 10 mg/L (Table 9)): 5; Day growth confluent ([6]; 10 mg/L (Table 9)): 2; Day white SCL 1st seen ([6]; 10 mg/L (Table 9)): 3; No. black SCL on day 10 ([6]; 10 mg/L (Table 9)): 17; Day 1 growth in mm ([6]; 12 mg/L (Table 11)): 20 mm; Day black SCL 1st seen ([6]; 12 mg/L (Table 11)): 6; Day growth confluent ([6]; 12 mg/L (Table 11)): 2; Day white SCL 1st seen ([6]; 12 mg/L (Table 11)): 3; No. black SCL on day 10 ([6]; 12 mg/L (Table 11)): >20; Day 1 growth in mm ([6]; 12 mg/L, adjusted to equal amounts of PO3 group (Table 10)): 18 mm; Day black SCL 1st seen ([6]; 12 mg/L, equal PO3 (Table 10)): 6; Day growth confluent ([6]; 12 mg/L, equal PO3 (Table 10)): 2; Day white SCL 1st seen ([6]; 12 mg/L, equal PO3 (Table 10)): 3; No. black SCL on day 10 ([6]; 12 mg/L, equal PO3 (Table 10)): >20; Day 1 growth in mm ([6]; 20 mg/L (Table 9)): 18 mm; Day growth confluent ([6]; 20 mg/L (Table 9)): 2; Day white SCL 1st seen ([6]; 20 mg/L (Table 9)): 4; No. black SCL on day 10 ([6]; 20 mg/L (Table 9)): 0; Day 1 growth in mm ([6]; 40 mg/L (Table 9)): 16 mm; Day growth confluent ([6]; 40 mg/L (Table 9)): 2; No. black SCL on day 10 ([6]; 40 mg/L (Table 9)): 0; Day 1 growth in mm ([6]; 40 mg/L (Table 11)): 19 mm; Day growth confluent ([6]; 40 mg/L (Table 11)): 2; No. black SCL on day 10 ([6]; 40 mg/L (Table 11)): 0; Day 1 growth in mm ([6]; 40 mg/L, adjusted to equal amounts of PO3 group (Table 10)): 16 mm; Day growth confluent ([6]; 40 mg/L, equal PO3 (Table 10)): 2; No. black SCL on day 10 ([6]; 40 mg/L, equal PO3 (Table 10)): 0; Day 1 growth in mm ([6]; 80 mg/L (Table 9)): 14 mm; Day growth confluent ([6]; 80 mg/L (Table 9)): 3; No. black SCL on day 10 ([6]; 80 mg/L (Table 9)): 0; Day 1 growth in mm ([6]; 120 mg/L (Table 11)): 14 mm; Day growth confluent ([6]; 120 mg/L (Table 11)): 3; No. black SCL on day 10 ([6]; 120 mg/L (Table 11)): 0; Day 1 growth in mm ([6]; 120 mg/L, adjusted to equal amounts of PO3 group (Table 10)): 10 mm; Day growth confluent ([6]; 120 mg/L, equal PO3 (Table 10)): 4; No. black SCL on day 10 ([6]; 120 mg/L, equal PO3 (Table 10)): 0; Day 1 growth in mm ([6]; 160 mg/L (Table 9)): 11 mm; Day growth confluent ([6]; 160 mg/L (Table 9)): 3; No. black SCL on day 10 ([6]; 160 mg/L (Table 9)): 0; Day 1 growth in mm ([6]; 400 mg/L (Table 11)): 6 mm; No. black SCL on day 10 ([6]; 400 mg/L (Table 11)): 0; Day 1 growth in mm ([6]; 400 mg/L, adjusted to equal amounts of PO3 group (Table 10)): 5 mm; No. black SCL on day 10 ([6]; 400 mg/L, equal PO3 (Table 10)): 0; times more active than AMPA at inhibiting black sclerotia formation [6, 17]: around 30 times; times more active than glyphosate at inhibiting black sclerotia formation [6, 17]: around 20 times

Which “sporicidal activity to F. oxysporum spores” value ([1]; 100 millimolar sodium nitrite alone, data not shown) does the source give for `O=NO` [NaNO2, sodium nitrite] here?
Its value is “sporicidal”.

What about the “Fungal growth score, spores of F. oxysporum” value [1, 18] of the same compound?
The value was 2.

What about the “Fungal growth score, spores of F. oxysporum” value [1, 19] of the same compound?
Its value is 2.

And the “Fungal growth score, spores of F. oxysporum” value [1, 20]?
Its value is 2.

And the “Fungal growth score, spores of F. oxysporum” value [1, 21]?
The value was 2.

What about the “Fungal growth score, spores of B. cinerea” value [2, 18] of the same compound?
The value was 2.

And the “Fungal growth score, spores of B. cinerea” value [2, 19]?
The value was 2.

And the “Fungal growth score, spores of B. cinerea” value [2, 20]?
Its value is 2.

What about the “Fungal growth score, spores of B. cinerea” value [2, 21] of the same compound?
The value was 2.

What about the “Fungal growth score, spores of B. cinerea” value ([2]; NaNO2 100 mM + DW (sodium nitrite alone)) of the same compound?
The value was 2.

What about the “Mean fungal growth (in mm ± SD, n = 2) of black sclerotia after treatment” value ([7]; NaNO2 30 mM + 0 composition (sodium nitrite alone)) of the same compound?
The value was 41 ± 2 mm and 43 ± 2 mm.

What about the “scleroticidal effect (words, FIG. 2)” value ([7]; sodium nitrite alone (0+100), white or black sclerotia) of the same compound?
Its value is “little or no significant scleroticidal effect”.
